From paper PMC12081684, “A three-dimensional high throughput assay identifies novel antibacterial molecules with activity against intracellular Shigella” (npj Antimicrobials and Resistance, 2025) come the findings set out here.

“And” between values parts separate entries of the source, which are not always exact repeats. Equal entries are not always repeated. Where two headings read alike, the source gives them in different places.

The subject of assay [1] is intracellular S. flexneri SF_nanoluc in Caco-2 cells on Cytodex 3 beads. The assay can be described thus: microbe, parasite or virus in culture. As for the experimental part: S. flexneri SF_nanoluc was grown overnight on a 50mgL^-1 kanamycin LB plate at 37 °C. Bacteria were scraped from the plate surface and sub-cultured in warm supplemented EMEM medium for 2 h (at 37 °C and 200 rpm) and diluted to get OD around 0.3 at 625 nm. Induction was performed in 500 ml or 1000 ml siliconized spinner flasks under closed culture conditions. 200 mg autoclaved Cytodex 3 beads (GE Healthcare), rehydrated with cation-free PBS (Sigma), were washed with supplemented EMEM medium and inoculated with 1.7 million Caco-2 cells/ml in half of the desired culture volume of the medium. The spinner vessel was kept static for 4 h in a humidified atmosphere of 5% CO2 at 37 °C, allowing Caco-2 cells to bind to beads. The remaining medium was added into the vessel and stirred at 32.5 rpm. The medium was changed every 72 h, and the induction was used on day 17 to ensure Caco-2 cells were fully differentiated.
Cell concentration induction was measured by NucleoCounter® NC-100™ (ChemoMetec Version 2.4). Cellular invasion was initiated by adding the bacterial stock into cell induction with optimal MOI, and the vessel was stationary for an hour before stirring at 22.5 rpm for 5 h in a humid atmosphere of 5% CO2 at 37 °C. After incubation, culture media was discarded by centrifugation; and a gentamicin protection assay was performed, in which cell beads were washed twice with a warm medium and EMEM containing gentamicin (100ug ml^-1) was added to the chamber of the system. The cell culture was incubated for 1 h with stirring and then washed three times with a warm medium before 25 μl of the invasive mixture was dispensed into each well. Plates were incubated for two days in a humid atmosphere of 5% CO2 at 37 °C before proceeding to develop the luminescent signal by adding 10 μl mixture of nanoluciferase substrate (Nano-Glo® Luciferase Assay System, N1130, Promega) into each well. After standing at room temperature for 30 min, luminescent signals were quantified by the Envision Reader (PerkinElmer) in focus luminescent mode. For the bacterial tracking, we used the green fluorescent protein in S. flexneri ATCC 12022GFP to monitor the invasion.
The HTS assay was performed in 384-well black clear-bottom plates (Greiner). Screening compounds were prepared with an appropriate DMSO concentration (0.5% in cell-based assay). Every assay plate contained 16 wells of DMSO as negative controls and 16 wells of moxifloxacin at a final concentration of 20 μM as positive controls. These controls were used to monitor assay quality through determination of Z’ factor as well as normalizing the data on a per-plate basis.
To assess the quality of the dose-response assay, 11 commercially available antimicrobials were used to evaluate the reliability of the HTS assay. The percentage of coefficient of variation (CV%) was calculated by accessing the IC50 (μM) deviation of selected positive controls. Intra-assay reproducibility was determined by comparing the IC50 that were generated in the same run of the two replicates. Inter-assay reproducibility was assessed by comparing the IC50 generated by two replicates of each day over two days. Intra-assay %CV should be <10%, while inter-assay %CV should be <15%. To validate the HTS assay configuration, a set of 10 thousand compounds was assayed in 384-well plates at a final concentration of 10 μM. Assay were run in duplicate and confirmed if needed, a validation data was assessed to analyse the pros and cons of the whole procedure.
Following screening, all non-novel structures were removed, and the remaining compounds were subjected to a dose response (DR) assay, which was set as 3-fold serial dilution started at 100uM each compound.
The raw data of the plate reader was imported and analysed in ActivityBase and Spotfire version 10.3.1.18 (TIBCO).

Assay [2] concerns intracellular S. flexneri in Caco-2 cell monolayers. The assay can be described thus: Monolayer (plate-based) Caco-2 intracellular Shigella assay. Type of assay: cell-based, Shigella flexneri. From the text: The IC50 comparison between plate-based (monolayers) and bead-based assay was applied for control (Moxifloxacin) to validate and compare between two methods. The average IC50s from monolayer assays were lower than bead-based assays, but there was no significant difference (p value > 0.05, using Mann-Whitney test) between two methods (Supplementary Table 6).

For orientation: IC50 means the concentration that inhibits the measured activity by half. For `COc1c(N2C[C@@H]3CCCN[C@@H]3C2)c(F)cc2c(=O)c(C(=O)O)cn(C3CC3)c12` [Moxifloxacin, reference compound], the IC50 was 0.0305 µM in assay [1] (Shigella flexneri, Caco-2, read-out: IC50 (µM) Beads, Average, Average of three, Supplementary table 6); 0.0361 µM in assay [1] (Shigella flexneri, Caco-2, read-out: IC50 (µM) Beads, single runs, Supplementary table 6); 0.0252 µM in assay [1] (Shigella flexneri, Caco-2, read-out: IC50 T1, 1st Batch, replicate T1); 0.0221 µM in assay [1] (Shigella flexneri, Caco-2, read-out: IC50 T2, 1st Batch, replicate T2); 0.0235 µM in assay [1] (Shigella flexneri, Caco-2, read-out: IC50 T3, 2nd Batch, replicate T3); 0.0235 µM in assay [1] (Shigella flexneri, Caco-2, read-out: IC50 T4, 2nd Batch, replicate T4). Besides, the IC50 was 0.0327 µM and 0.0226 µM in assay [1] (read-out: IC50 (µM) Beads, single runs, Supplementary table 6); 0.0232 µM in assay [2] (Shigella flexneri, Caco-2, Average of three, read-out: IC50 (µM) Monolayers, Average); 0.0236 µM in assay [2] (Shigella flexneri, Caco-2, single runs, read-out: IC50 (µM) Monolayers); 0.0234 µM and 0.0228 µM in assay [2] (single runs, read-out: IC50 (µM) Monolayers).
